This note sets out measurements from ChEMBL document CHEMBL1201862, “PubChem BioAssay data set” (2004).

SMILES strings stand for the structures. Several values for one entry are separate records, joined by “and”; a condition that tells them apart may be missing. Equal values may be shown once.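 Method: 48-hour compound exposure of cells in 96-well plates, five concentrations, linear interpolation of endpoints. Here, GI50 denotes the concentration required for 50% inhibition of growth.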 Activity calls are given as the source filed them. No stated cut-off is given here; in the data, active = GI50 up to about 1.1 µM and inactive = higher.

Some test systems named below: CCRF-CEM; NCI-H226; UACC-257; K562; LOX IMVI; M14; NCI-H460; U-251; A498; SF-539; SK-MEL-28; Malme-3M; COLO 205; SK-OV-3; A549; SF-295; SNB-75; HCT-116; HCT-15; MOLT-4.
What all share (assay): growth of human tumour cells (NCI), 48 h

As to `OC(CBr)C(O)C(O)C(O)CBr` (configuration not stated), the GI50 was 14.3 µM (inactive) and > 21.6 µM (inactive) in the assay on CCRF-CEM; > 100 µM (inactive) and > 74.1 µM (inactive) in the assay with NCI-H226; > 69 µM (inactive) and > 64 µM (inactive) with UACC-257; > 87.9 µM (inactive) in the assay with K562; 51.6 µM (inactive) and 40.9 µM (inactive) in the assay on LOX IMVI; 28.1 µM (inactive) in the assay on M14. Also, the GI50 with NCI-H460 was 8.3 µM (inactive) and 10.7 µM (inactive); in the assay on U-251, > 43.2 µM (inactive) and > 63.8 µM (inactive); with A498, > 61.9 µM (inactive); with SF-539 it was 46.7 µM (inactive) and 49.8 µM (inactive); in the assay with SK-MEL-28, > 92.7 µM (inactive); with Malme-3M, > 100 µM (inactive) and > 85.5 µM (inactive). For the same molecule, the GI50 in the assay with COLO 205 is > 53.6 µM (inactive); in the assay on SK-OV-3, > 55.1 µM (inactive) and > 53.1 µM (inactive); in the assay on A549, 19 µM (inactive) and 36.9 µM (inactive).

Turning to `C/C(=N/NC(=O)CC(=O)N(C(=O)c1ccccc1Cl)c1ccc(C)cc1)c1cc2ccccc2oc1=O`, the GI50 was > 100 µM (inactive) with CCRF-CEM; > 100 µM (inactive) with NCI-H226; > 100 µM (inactive) with UACC-257; > 100 µM (inactive) in the assay on K562; 73.1 µM (inactive) in the assay with LOX IMVI; 65.3 µM (inactive) in the assay with M14. In addition, the GI50 in the assay with NCI-H460 is > 100 µM (inactive); in the assay on SF-295 it was > 100 µM (inactive); in the assay on U-251, > 100 µM (inactive); with SNB-75 it was 31 µM (inactive); in the assay on A498 it was > 100 µM (inactive); with SF-539 it was > 100 µM (inactive). Further, the GI50 in the assay with SK-MEL-28 is > 100 µM (inactive); in the assay on HCT-116 it was > 100 µM (inactive); with Malme-3M, > 100 µM (inactive); with COLO 205, > 100 µM (inactive); in the assay on HCT-15 it was greater than 100 µM; in the assay with A549 it was > 100 µM (inactive).

On to `O=C(NCCCOC(=O)CCCCCCCCC(=O)OCCCNC(=O)NC(=O)c1c[nH]c(=O)[nH]c1=O)NC(=O)c1c[nH]c(=O)[nH]c1=O`, for which the GI50 with CCRF-CEM, with UACC-257, in the assay with K562, in the assay on LOX IMVI, in the assay on M14 and with NCI-H460 was > 100 µM (inactive) each time. Further, the GI50 with SF-295, in the assay with U-251, in the assay on A498, with SF-539, in the assay on SK-MEL-28 and with HCT-116 was > 100 µM (inactive) in each case. Besides, the GI50 in the assay on Malme-3M is > 100 µM (inactive); in the assay on COLO 205 it was > 100 µM (inactive); in the assay with SK-OV-3, > 100 µM (inactive); in the assay with HCT-15, greater than 100 µM; in the assay on MOLT-4 it was > 100 µM (inactive); with A549, > 100 µM (inactive).

`Cc1ccc(P(c2ccc(C)cc2)c2ccc(C)cc2)cc1`: the GI50 is 20.4 µM (inactive) in the assay on CCRF-CEM; 22.1 µM (inactive) in the assay with UACC-257; 4.83 µM (inactive) with K562; 14.9 µM (inactive) with LOX IMVI; 19.3 µM (inactive) in the assay with M14; 12.9 µM (inactive) in the assay with NCI-H460. Moreover, the GI50 was 21.4 µM (inactive) with SF-295; 14.3 µM (inactive) with U-251; 15.2 µM (inactive) with SNB-75; 27.1 µM (inactive) in the assay with A498; 21.6 µM (inactive) in the assay on SF-539; 24.5 µM (inactive) in the assay with SK-MEL-28. Also, the GI50 in the assay on HCT-116 is 12.4 µM (inactive); with Malme-3M, 18.3 µM (inactive); in the assay on COLO 205, 14.5 µM (inactive); with SK-OV-3, 30.4 µM (inactive); with HCT-15 it was 20.2 µM; in the assay on MOLT-4 it was 16.5 µM (inactive). In addition, in the assay with A549, the GI50 was 14.6 µM (inactive).

With `COc1ccc2c(c1)CCCN2CCCCCCCCCCN(CCC(C)C)CCC(C)C`, the GI50 in the assay with CCRF-CEM was 7.29 µM (inactive); with NCI-H226, 14 µM (inactive); with UACC-257, 14.9 µM (inactive); in the assay on K562, 4.24 µM (inactive); in the assay on LOX IMVI, 12.4 µM (inactive); in the assay with M14, 13.3 µM (inactive). Besides, the GI50 in the assay on NCI-H460 is 11.2 µM (inactive); with SF-295 it was 14.1 µM (inactive); in the assay with U-251, 13.2 µM (inactive); in the assay on A498 it was 16.7 µM (inactive); with SF-539 it was 3.39 µM (inactive); in the assay with SK-MEL-28, 13.6 µM (inactive). Besides, the GI50 with Malme-3M was 13.4 µM (inactive); in the assay with COLO 205, 12.1 µM (inactive); in the assay on SK-OV-3 it was 19.3 µM (inactive); with HCT-15 it was 8.34 µM; in the assay with MOLT-4 it was 5.58 µM (inactive); in the assay on A549, 11.7 µM (inactive).

For `C=C(Br)C(C)(Cl)CCC(Br)C(C)(C)Cl` (configuration not stated), the GI50 was 20.6 µM (inactive) in the assay on CCRF-CEM; 25.6 µM (inactive) in the assay with NCI-H226; 28.9 µM (inactive) in the assay with UACC-257; 46.3 µM (inactive) in the assay on K562; 17.6 µM (inactive) with LOX IMVI; 32.9 µM (inactive) in the assay with M14. Also, the GI50 with NCI-H460 is > 100 µM (inactive); with SF-295, 34.8 µM (inactive); in the assay with U-251, > 100 µM (inactive); in the assay with A498 it was > 100 µM (inactive); with SF-539 it was 74.8 µM (inactive); with SK-MEL-28, > 100 µM (inactive). The GI50 with HCT-116 is 34.9 µM (inactive); in the assay with Malme-3M, 23.4 µM (inactive); in the assay on COLO 205, 27 µM (inactive); in the assay on SK-OV-3, > 100 µM (inactive); in the assay with HCT-15, 43 µM; in the assay with MOLT-4 it was 32.3 µM (inactive). In addition, the GI50 with A549 is 36.1 µM (inactive).

For the molecule `C/C(Cl)=N\OC(=O)Nc1ccccc1C(F)(F)F`, the GI50 is 21.1 µM (inactive) in the assay on CCRF-CEM; > 100 µM (inactive) in the assay on UACC-257; 19 µM (inactive) with K562; 14.9 µM (inactive) with LOX IMVI; > 100 µM (inactive) with NCI-H460; > 100 µM (inactive) with SF-295. Also, the GI50 in the assay on U-251 is > 100 µM (inactive); with SNB-75, 20.9 µM (inactive); in the assay on A498, > 100 µM (inactive); in the assay with SF-539, > 100 µM (inactive); in the assay on SK-MEL-28, 17.8 µM (inactive); in the assay on HCT-116, 33.4 µM (inactive). Further, the GI50 is 20.9 µM (inactive) in the assay with Malme-3M; 21.6 µM (inactive) in the assay on COLO 205; > 100 µM (inactive) with SK-OV-3; greater than 100 µM in the assay with HCT-15; 18.5 µM (inactive) in the assay on MOLT-4; > 100 µM (inactive) in the assay with A549.

Take `O=S(OC12CC3CC(CC(C3)C1)C2)c1cc(Cl)cc(Cl)c1OCc1ccccc1` (configuration not stated): the GI50 with CCRF-CEM, in the assay with UACC-257, with K562, with LOX IMVI, in the assay with M14 and in the assay with NCI-H460 was > 100 µM (inactive) each time. Also, the GI50 in the assay with U-251, in the assay with SNB-75, in the assay with A498, in the assay on SF-539, in the assay on SK-MEL-28 and in the assay with HCT-116 was > 100 µM (inactive) throughout. In addition, the GI50 in the assay on Malme-3M, with SK-OV-3 and in the assay with MOLT-4 was > 100 µM (inactive) each time.

For the molecule `FC(F)(F)c1ccc2c(c1)N(CCCNCCN1CCOCC1)c1ccccc1S2`, the GI50 in the assay on CCRF-CEM is 12.6 µM (inactive); in the assay with UACC-257, 10.9 µM (inactive); with K562, 2.99 µM (inactive); in the assay on LOX IMVI, 8.85 µM (inactive); in the assay on M14, 1.95 µM (inactive); in the assay on NCI-H460 it was 11.2 µM (inactive). Also, the GI50 with SF-295 was 13.3 µM (inactive); with U-251 it was 11.6 µM (inactive); with SNB-75 it was 7.13 µM (inactive); in the assay on A498 it was 17.9 µM (inactive); with SF-539 it was 4.7 µM (inactive); in the assay with SK-MEL-28, 5.2 µM (inactive). The GI50 in the assay with HCT-116 is 3.17 µM (inactive); with Malme-3M, 2.44 µM (inactive); with COLO 205, 2.37 µM (inactive); in the assay with SK-OV-3, > 10 µM (inactive); in the assay on HCT-15 it was 6.52 µM; in the assay with MOLT-4 it was 4.74 µM (inactive). For the same molecule, in the assay with A549, the GI50 is 14.4 µM (inactive).

On to `O=C(O)c1cc(Sc2ccc([N+](=O)[O-])c(C(=O)O)c2)ccc1[N+](=O)[O-]`, for which the GI50 in the assay with CCRF-CEM, in the assay with NCI-H226, in the assay with UACC-257, with K562, in the assay with LOX IMVI and in the assay with M14 was > 100 µM (inactive) each time. The GI50 with NCI-H460, in the assay with SF-295, in the assay on U-251, in the assay on A498, in the assay with SF-539 and with SK-MEL-28 was > 100 µM (inactive) in each case. Moreover, the GI50 in the assay with HCT-116 is > 100 µM (inactive); in the assay with Malme-3M, 0.413 µM (active); with COLO 205, > 100 µM (inactive); with SK-OV-3 it was > 100 µM (inactive); with HCT-15 it was greater than 100 µM; in the assay with MOLT-4, > 100 µM (inactive). For the same molecule, in the assay on A549, the GI50 was > 100 µM (inactive).

Consider `O=C1c2cc3c(cc2CC12Cc1cc4c(cc1C2)CCC4)CCC3`, for which the GI50 is > 100 µM (inactive) in the assay on CCRF-CEM; > 100 µM (inactive) in the assay with UACC-257; 27 µM (inactive) with K562; > 100 µM (inactive) in the assay on LOX IMVI; > 100 µM (inactive) with M14; > 100 µM (inactive) in the assay on NCI-H460. For the same molecule, the GI50 in the assay with SF-295, in the assay with U-251, with SNB-75, with A498, in the assay with SF-539 and with SK-MEL-28 was > 100 µM (inactive) in each case. Besides, the GI50 is > 100 µM (inactive) in the assay with HCT-116; > 100 µM (inactive) in the assay with Malme-3M; > 100 µM (inactive) in the assay on COLO 205; > 100 µM (inactive) in the assay with SK-OV-3; greater than 100 µM with HCT-15; 49 µM (inactive) in the assay on MOLT-4. For the same molecule, the GI50 with A549 was > 100 µM (inactive).
